Data from patent US20250248979A1, “NOVEL GPX4 INHIBITORS AND USES THEREOF” (THE TRUSTEES OF COLUMBIA UNIVERSITY IN THE CITY OF NEW YORK, priority 2022, published 2025).
Where two headings read alike, the source gives them in different places.

System: HT-1080 cells
Assay: Cellular dose response assay, HT-1080 with and without Fer-1
Format: cell-based, human
Details: for Selectivity: ferroptosis selectivity, IC50 with Fer-1 / IC50
Description: HT-1080 (human [Homo sapiens] […] fibrosarcoma), A-673 (human [Homo sapiens] […] Ewing's sarcoma), and SK-HEP-1 (human [Homo sapiens] […] hepatic adenocarcinoma), cells were obtained from ATCC. Huh7 (human [Homo sapiens] […] hepatocellular carcinoma), HLF (human [Homo sapiens] […] hepatocellular carcinoma), HepG2 (human [Homo sapiens] […] hepatocellular carcinoma), cells were obtained from the Cancer Cell Bank at Columbia University Irving Medical Center. HT-1080, A-673, Huh-7, and HLF cells were grown in Dulbecco's Modified Eagle Medium (DMEM) supplemented with 10% heat inactivated fetal bovine serum (HI-FBS), 1% non-essential amino acids, and 1% penicillin streptomycin. HepG2 and SK-HEP-1 cells were grown in Eagle's Minimum Essential Medium (EMEM) supplemented with 10% HI-FBS, and 1% penicillin-streptomycin. All cells were cultured at 37° C. and 5% CO2.
HT-1080, HepG2, Huh7, HLF, and SK-HEP-1 cells were seeded into opaque white 384-well plates at 1500 cells per well then incubated at 37° C. with 5% CO2 overnight. The next day, compounds of interest were dissolved in DMSO and 12-point 2-fold dilution series were prepared with and without Fer-1. Cells were treated in triplicate (final DMSO concentration of 0.4% in all wells, including DMSO-only control wells) and incubated for a further 48 hours at 37° C. and 5% CO2. Cell viability was evaluated using CellTiter-Glo (Promega G7573) and luminescence was recorded on a Victor 5 plate reader. Data were analyzed in GraphPad Prism 9 and error bars represent standard deviation values for three technical replicates in a representative experiment.

[1] = with Fer-1, Table 10, read-out: IC50 (μM) HT1080 + Fer-1
[2] = without Fer-1, Table 10, read-out: IC50 (μM) HT1080

Row | IC50 (read-out: IC50 HT1080) | SMILES | ferroptosis selectivity (HT-1080) | Selectivity | IC50 [1] | IC50 [2] | fold reduced activity relative to QW-852 (HT1080) | ferroptosis induction / potency in HT-1080 cells, result in words (RSL3 as control)
1 |  | CC(C)(COC(=O)CCl)NC(=O)c1c2ccc(-c3ccc(N4CCOCC4)c(Cl)c3)cc2nn1Cc1ccc(Cl)nc1 [QW-904] | 3.8 | 3.8 | 2.8 µM | 0.74 µM |  | 
2 |  | CC(=O)c1cccc(Cn2nc3cc(-c4ccc(N5CCOCC5)c(Cl)c4)ccc3c2C(=O)NC(C)(C)COC(=O)CCl)c1 [QW-911] |  | 3.8 | 5 µM | 1.3 µM |  | 
3 |  | CC(C)(COC(=O)CCl)NC(=O)c1c2ccc(Br)cc2nn1Cc1ccc(-c2ccc(N3CCOCC3)c(Cl)c2)cc1 [QW-912] |  | 3.4 | 5.1 µM | 1.5 µM |  | 
4 |  | COc1ccc(-c2ccc3c(C(=O)NC(C)(C)CNC(=O)CCl)nn(Cc4cc(Cl)cc(Cl)c4)c3c2)cc1Cl [QW-927] |  | 5.1 | 8.2 µM | 1.6 µM |  | 
5 |  | CC(C)(CNC(=O)CCl)NC(=O)c1nn(Cc2cc(Cl)cc(Cl)c2)c2cc(-c3ccc(N4CCOCC4)c(Cl)c3)ccc12 [QW-929] |  | 2.9 | 4.6 µM | 1.6 µM |  | 
6 |  | COc1ccc(-c2ccc3c(C(=O)NC(C)(C)COC(=O)CCl)nn(Cc4cc(C(F)(F)F)cc(C(F)(F)F)c4)c3c2)cc1Cl [QW-930] |  | 0.6 | 13 µM | 21.8 µM |  | 
7 |  | CC(C)(COC(=O)CCl)NC(=O)c1nn(Cc2cc(C(F)(F)F)cc(C(F)(F)F)c2)c2cc(-c3ccc(N4CCOCC4)c(Cl)c3)ccc12 [QW-931] |  | 6.6 | 34.3 µM | 5.2 µM |  | 
8 | 1 µM | CC(C)(COC(=O)CCl)NC(=O)c1c2ccc(-c3ccc(N4CCOCC4)c(Cl)c3)cc2nn1Cc1cc(Cl)cc(Cl)c1 [QW-937] |  | 2.7 | 2.7 µM |  | 25 fold | 
9 |  | CC(C)(COC(=O)CCl)NC(=O)c1c2ccc(-c3ccc(N4CCOCC4)c(Cl)c3)cc2nn1Cc1cc(C(F)(F)F)cc(C(F)(F)F)c1 [QW-945] |  | 4.0 | 10.7 µM | 2.7 µM |  | 
10 |  | COc1ccc(-c2ccc3c(C(=O)NC(C)(C)COC(=O)CCl)nn(Cc4cc(Cl)ccc4Cl)c3c2)cc1Cl [QW-946] |  | 133.4 | 454 µM | 3.4 µM |  | 
11 |  | CC(C)(COC(=O)CCl)NC(=O)c1nn(Cc2cc(Cl)cc(Cl)c2)c2cc(Br)ccc12 [QW-954] |  | 2.0 | 11.8 µM | 5.9 µM |  | 
12 |  | COc1ccc(-c2ccc3c(C(=O)NC(C)(C)COC(=O)CCl)nn(Cc4cccc(Cl)c4Cl)c3c2)cc1Cl [QW-958] |  | 13.7 | 31.6 µM | 2.3 µM |  | 
13 |  | CC(C)(COC(=O)CCl)NC(=O)c1nn(Cc2cccc(Cl)c2Cl)c2cc(-c3ccc(N4CCOCC4)c(Cl)c3)ccc12 [QW-959] |  | 508.5 | 610 µM | 1.2 µM |  | 
14 |  | CC(C)(COC(=O)CCl)NC(=O)c1nn(Cc2ccc(Cl)c(Cl)c2)c2cc(-c3ccc(N4CCOCC4)c(Cl)c3)ccc12 [QW-968] |  |  | > 40 µM | > 40 µM |  | 
15 |  | COc1ccc(-c2ccc3c(C(=O)NC(C)(C)COC(=O)CCl)n(Cc4ccc(Cl)c(Cl)c4)nc3c2)cc1Cl [QW-972] |  | 1.5 | 5.5 µM | 3.6 µM |  | 
16 |  | CC(C)(COC(=O)CCl)NC(=O)c1c2ccc(-c3ccc(N4CCOCC4)c(Cl)c3)cc2nn1Cc1ccc(Cl)c(Cl)c1 [QW-973] |  | 1.4 | 5.8 µM | 4.2 µM |  | 
17 |  | COc1ccc(-c2ccc3c(c2)c(C(=O)NC(C)(C)COC(=O)CCl)nn3Cc2cc(Cl)cc(Cl)c2)cc1Cl [QW-979] |  | 1.8 | 12.5 µM | 6.9 µM |  | 

Row | IC50 (read-out: IC50 HT1080) | SMILES | ferroptosis selectivity (HT-1080) | Selectivity | IC50 [1] | IC50 [2] | fold reduced activity relative to QW-852 (HT1080) | ferroptosis induction / potency in HT-1080 cells, result in words (RSL3 as control)
18 |  | CC(C)(COC(=O)CCl)NC(=O)c1nn(Cc2cc(Cl)cc(Cl)c2)c2ccc(-c3ccc(N4CCOCC4)c(Cl)c3)cc12 [QW-980] |  | 1.5 | 8.4 µM | 5.5 µM |  | 
19 |  | CCOc1ccc(-c2ccc3c(C(=O)NC(C)(C)COC(=O)CCl)nn(Cc4cc(Cl)cc(Cl)c4)c3c2)cc1Cl [QW-983] |  | 8.7 | 19.2 µM | 2.2 µM |  | 
20 |  | CSc1ccc(-c2ccc3c(C(=O)NC(C)(C)COC(=O)CCl)nn(Cc4cc(Cl)cc(Cl)c4)c3c2)cc1Cl [QW-984] |  | >53 | > 40 µM | 0.75 µM |  | 
21 |  | CCCOc1ccc(-c2ccc3c(C(=O)NC(C)(C)COC(=O)CCl)nn(Cc4cc(Cl)cc(Cl)c4)c3c2)cc1Cl [QW-987] |  | >55 | > 40 µM | 0.72 µM |  | 
22 |  | CC(C)(COC(=O)CCl)NC(=O)c1nn(Cc2cc(Cl)cc(Cl)c2)c2cc(-c3ccc(N4CCOCC4)cc3)ccc12 [QW-988] |  | 6.7 | 19.5 µM | 2.9 µM |  | 
23 |  | CC(C)(COC(=O)CCl)NC(=O)c1nn(Cc2cc(Cl)cc(Cl)c2)c2cc(-c3ccc(OC(F)(F)F)c(Cl)c3)ccc12 [QW-991] |  | 32.0 | 21.1 µM | 0.66 µM |  | 
24 |  | COC(=O)c1ccc(-c2ccc3c(C(=O)NC(C)(C)COC(=O)CCl)nn(Cc4cc(Cl)cc(Cl)c4)c3c2)cc1Cl [QW-992] |  | 7.5 | 23.3 µM | 3.1 µM |  | 
25 |  | CC(C)(COC(=O)CCl)NC(=O)c1nn(Cc2cc(Cl)cc(Cl)c2)c2cc(-c3ccc(C(F)(F)F)c(Cl)c3)ccc12 [QW-995] |  | 1.1 | 47.1 µM | 42.3 µM |  | 
26 |  | CC(C)Oc1c(Cl)cc(-c2ccc3c(C(=O)NC(C)(C)COC(=O)CCl)nn(Cc4cc(Cl)cc(Cl)c4)c3c2)cc1Cl [QW-996] |  | 17.8 | 12.8 µM | 0.72 µM |  | 
27 |  | COc1c(Cl)cc(-c2ccc3c(C(=O)NC(C)(C)COC(=O)CCl)nn(Cc4cc(Cl)cc(Cl)c4)c3c2)cc1Cl [QW-998] |  | >114.3 | > 40 µM | 0.35 µM |  | 
28 |  | CC(=O)OCC(C)(C)NC(=O)c1nn(Cc2cc(Cl)cc(Cl)c2)c2cc(-c3ccc(N4CCOCC4)c(Cl)c3)ccc12 [QW-999] |  |  | > 40 µM | > 40 µM |  | inactive in cellular assay
29 |  | CC(C)(COC(=O)C(Cl)Cl)NC(=O)c1nn(Cc2cc(Cl)cc(Cl)c2)c2cc(-c3ccc(N4CCOCC4)c(Cl)c3)ccc12 [QW-1000] |  |  | > 40 µM | > 40 µM |  | 
30 |  | COC(=O)/C=C/C(=O)OCC(C)(C)NC(=O)c1nn(Cc2cc(Cl)cc(Cl)c2)c2cc(-c3ccc(N4CCOCC4)c(Cl)c3)ccc12 [QW-1001] |  |  | > 40 µM | > 40 µM |  | 
31 |  | CC=CC(=O)OCC(C)(C)NC(=O)c1nn(Cc2cc(Cl)cc(Cl)c2)c2cc(-c3ccc(N4CCOCC4)c(Cl)c3)ccc12 [QW-1002] |  |  | > 40 µM | > 40 µM |  | 
32 |  | CC(C)(COC(=O)CBr)NC(=O)c1nn(Cc2cc(Cl)cc(Cl)c2)c2cc(-c3ccc(N4CCOCC4)c(Cl)c3)ccc12 [QW-1004] |  | 2.3 | 8.9 µM | 3.8 µM |  | 
33 |  | CC(C)(COC(=O)c1ccc(S(C)(=O)=O)c([N+](=O)[O-])c1)NC(=O)c1nn(Cc2cc(Cl)cc(Cl)c2)c2cc(-c3ccc(N4CCOCC4)c(Cl)c3)ccc12 [QW-1006] |  |  | > 40 µM | > 40 µM |  | 
